US20240116990A1, “Compositions and Methods of Treatment Using CRRL 191” (Mayo Foundation for Medical Education and Research, priority 2022, published 2024)
Bridge positions count the residues as written; N and C are the ends.

How the values were obtained:
human GC-A = target: T1, human GC-A (Homo sapiens, UniProt P16066); experiment: cGMP production in HEK293 cells overexpressing GC-A, 10 min stimulation; format: cell-based; design: Mean (intracellular cGMP): unit not given here; conditions: for Mean (intracellular cGMP): 10 min, HEK293 GC-A cells
T1 construct: host or cells: HEK293
T1 sequence (P16066 33-1061): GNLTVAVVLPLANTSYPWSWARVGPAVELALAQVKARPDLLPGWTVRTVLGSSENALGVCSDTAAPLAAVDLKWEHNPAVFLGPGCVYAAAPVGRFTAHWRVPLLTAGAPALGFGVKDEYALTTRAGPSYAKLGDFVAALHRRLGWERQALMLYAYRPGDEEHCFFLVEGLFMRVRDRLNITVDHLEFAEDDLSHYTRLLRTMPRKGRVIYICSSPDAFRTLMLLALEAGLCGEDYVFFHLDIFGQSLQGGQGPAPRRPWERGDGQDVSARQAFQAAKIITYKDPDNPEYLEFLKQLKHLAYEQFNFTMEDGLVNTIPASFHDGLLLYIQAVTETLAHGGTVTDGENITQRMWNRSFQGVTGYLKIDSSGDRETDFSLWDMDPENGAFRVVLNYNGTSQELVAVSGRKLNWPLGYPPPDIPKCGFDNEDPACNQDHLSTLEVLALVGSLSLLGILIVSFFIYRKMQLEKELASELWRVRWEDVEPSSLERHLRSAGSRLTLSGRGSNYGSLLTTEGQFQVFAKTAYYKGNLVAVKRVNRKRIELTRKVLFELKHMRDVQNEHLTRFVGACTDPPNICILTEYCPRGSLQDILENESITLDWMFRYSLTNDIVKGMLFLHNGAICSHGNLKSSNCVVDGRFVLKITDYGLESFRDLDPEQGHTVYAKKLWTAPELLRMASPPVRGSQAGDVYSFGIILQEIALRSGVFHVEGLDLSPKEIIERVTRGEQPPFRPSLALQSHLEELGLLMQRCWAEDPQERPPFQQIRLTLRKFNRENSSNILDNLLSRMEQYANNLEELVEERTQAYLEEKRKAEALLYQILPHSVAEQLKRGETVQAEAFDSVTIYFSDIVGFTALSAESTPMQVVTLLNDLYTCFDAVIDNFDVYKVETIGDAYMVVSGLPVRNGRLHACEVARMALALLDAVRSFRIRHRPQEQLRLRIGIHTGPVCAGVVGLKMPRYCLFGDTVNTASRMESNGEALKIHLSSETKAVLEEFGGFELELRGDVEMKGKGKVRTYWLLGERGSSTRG
Method: HEK293 cells stably transfected with human GC-A (cDNA clones from Origene, Rockville, MD) using Lipofectamine (Invitrogen, Grand Island, NY), are developed. Receptor overexpression is verified with immunofluorescence and western blotting. GC-A-transfected HEK293 (HEK/GCA) cells are maintained in Dulbecco's modified Eagle's medium (DMEM) supplemented with 10% fetal bovine serum (FBS), 100 U/ml penicillin, 100 U/ml streptomycin and 250 μg/ml G418.
Two in vitro cGMP assays are performed. Briefly, HEK/GCA cells are seeded in 48-well plates and cultured overnight to 80-90% confluency. The treatment buffer used in all experiments comprises Hank's Balanced Salt Solution (HBSS), 0.1% bovine serum albumin (BSA), 2 mM HEPES, and 0.5 mM 3-isobutyl-1-methylxanthine (IBMX, a non-specific phosphodiesterase inhibitor) (Sigma, St. Louis, MO).
After treatment, all cells are washed with phosphate buffered solution (PBS) once and lysed with 0.1M HCl.

[1] = tested on: Human cardiomyocytes (HCM); experiment: Human cardiomyocyte real-time apoptosis analysis (staurosporine-induced, Caspase-3/7 imaging); format: cell-based; conditions: 0.05 μM staurosporine, 90 hours, FIG. 6
Method: HCM cells are seeded in 96-well plate at approximately 80% confluency. Cells are treated with various concentrations of staurosporine (SP) to induce apoptosis. Based on the dose response curve, 0.05 μM of SP is selected to induce apoptosis in HCM.
Plates are then transferred to a time-lapsed, live imaging system IncuCyte S3 (Essen BioScience, Ann Arbor, MI) for apoptosis monitoring every 2 hours for a total of 90 hours. All treatment groups are performed in quintuplicates and repeated twice. Images are collected using the IncuCyte S3 Live-Cell Analysis System Software (Essen Bioscience, Ann Arbor, MI), and the data are analyzed for the Green Object Area of apoptotic bodies per well.

[2] = tested on: Spontaneously Hypertensive Rats (SHR); experiment: Blood pressure in spontaneously hypertensive rats during infusion and washout; format: in vivo, rat; conditions: 100 pmol/kg and 300 pmol/kg doses
Method: (§1) All rat experiments are conducted following the Animal Welfare Act and the protocol is approved by the Mayo Clinic Institutional Animal Care and Use Committee (IACUC). […] Rats are included only if they are deemed healthy by the Institutional Veterinarian Department. Investigators who conduct the in vivo study are not blinded to treatments, but biochemical analysis is performed by a different investigator who is blinded to treatment.
(§2) On the day of the experiment, SHR rats are anesthetized with inactin (120 mg/kg, intraperitoneal injection, Sigma, St. Louis, MO). Rats are then kept on a heating pad at 38° C. to maintain a normal body temperature for the entire study. Vascular and bladder cannulation procedures are conducted. Briefly, a polyethylene-50 (PE-50) tube catheter is placed into one jugular vein for peptide infusion and another PE-50 tube is placed into the carotid artery for blood pressure (BP) monitoring (Sonometrics, London, Ontario, Canada) and blood sampling. After instrumentation, a 15-minute equilibrium period follows, and a 30-minute pre-infusion period is performed to collect baseline urine samples.
(§3) Four blood samples are collected to determine circulating cGMP levels: at baseline, before the end of drug infusion, at the middle of the washout clearance period, and before the end of the washout clearance period. Any blood loss in the rats is replaced with an equal volume of saline. BP is monitored and recorded every 15 minutes beginning after the initiation of peptide infusion. All collected blood are stored at −80° C. until assayed.

[3] = tested on: Spontaneously Hypertensive Rats (SHR); experiment: Plasma cGMP in spontaneously hypertensive rats; format: in vivo, rat
Method: as §1, §2, §3
For the biochemical analysis, plasma cGMP levels are measured with a cGMP ELISA kit (Enzo Life Sciences, Farmingdale, NY).

physchem = conditions: water
[4] = 100 pmol/kg and 300 pmol/kg doses, FIG. 9B

H-RALLTAPRSLRRSSCFGHKIDRINHVSNLGCNSFRYRITAREDKQGWA-OH (disulfide 15-31) [CRRL 191]
EC50 (human GC-A): 0.48 nM
Mean (intracellular cGMP) (human GC-A; 10^−6 M peptide): 135.48
Mean (intracellular cGMP) (human GC-A; 10^−7 M peptide): 140.84
Mean (intracellular cGMP) (human GC-A; 10^−8 M peptide): 152.04
Mean (intracellular cGMP) (human GC-A; 10^−9 M peptide): 89.94
Mean (intracellular cGMP) (human GC-A; 10^−10 M peptide): 35.57
Mean (intracellular cGMP) (human GC-A; 10^−12 M peptide): 2.57
EC50 potency compared to ANP (human GC-A; 10 minutes of stimulation): greater potency
cardiomyocyte apoptosis induced by SP ([1]; 10^−6 M): greatest effect on reducing cardiomyocyte apoptosis
cardiomyocyte apoptosis induced by SP ([1]; 10^−8 M): reduced cardiomyocyte apoptosis
cardiomyocyte apoptosis induced by SP ([1]; 10^−10 M): reduced cardiomyocyte apoptosis
lowering systolic blood pressure compared to ANP ([2]; iv infusion, FIG. 8A): more effective at lowering
lowering diastolic blood pressure compared to ANP ([2]; iv infusion, FIG. 8B): more effective at lowering
lowering mean arterial blood pressure compared to ANP ([2]; iv infusion, FIG. 8C): more effective at lowering
duration of blood pressure effect after peptide administration compared to ANP ([2]; washout): more sustained effect over time
activating cGMP in plasma compared to ANP [3, 4]: more potent
duration of plasma cGMP activation after peptide administration compared to ANP [3, 4]: more sustained activation
plasma cGMP levels ([3]; iv infusion, FIG. 9A): increase
solubility (physchem): ≥ 1000 µg/mL
